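Interpolation was linear, between the two tested concentrations surrounding the appropriate level; five concentrations were tested over 48 hours in 96-well plates. GI50 = concentration required for 50% inhibition of growth.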 Calls of active or inactive are those of the source. Rule as the data show it: active = GI50 up to about 1.1 µM and inactive = higher.

Among the test systems are UACC-257; M14; CCRF-CEM; A549; HCC 2998; SNB-19; HCT-15; SK-MEL-5; OVCAR-5; LOX IMVI; HT-29; Malme-3M; NCI-H226; NCI-H23; MOLT-4; OVCAR-8; SF-539; MCF7; RXF 393; KM-20L2.
Holding throughout (assay): DTP human tumour cell line panel, 48 h

One may read the GI50 as the concentration giving 50% growth inhibition. Regarding `C=CCNC(=O)CN(CC(=O)OC)C1CCCCC1N(CC(=O)OC)CC(=O)OC` (stereo not drawn), the GI50 in the assay with UACC-257 was > 100 µM (inactive); in the assay on M14, > 100 µM (inactive); with CCRF-CEM, > 100 µM (inactive); with A549, > 100 µM (inactive); in the assay on HCC 2998, 70 µM (inactive); in the assay with SNB-19 it was > 100 µM (inactive). For the same molecule, the GI50 in the assay with HCT-15 was > 100 µM; in the assay on SK-MEL-5, > 100 µM (inactive); in the assay with OVCAR-5, > 100 µM (inactive); with LOX IMVI, > 100 µM (inactive); with HT-29, > 100 µM (inactive); in the assay on Malme-3M, > 100 µM (inactive). Besides, the GI50 with NCI-H226, in the assay on NCI-H23, in the assay on MOLT-4, with OVCAR-8, in the assay on SF-539 and in the assay with MCF7 was > 100 µM (inactive) in each case. Also, in the assay with RXF 393, the GI50 is > 100 µM (inactive).
With `Cc1cn(Cc2cn(CC3OC(n4cc(C)c(=O)[nH]c4=O)CC3O)nn2)c(=O)[nH]c1=O` (stereo not drawn), the GI50 with UACC-257, in the assay on M14, in the assay on CCRF-CEM, with A549, with HCC 2998 and in the assay with SNB-19 was > 100 µM (inactive) each time. The concentration for 50% growth inhibition (GI50) in the assay with HCT-15 is > 100 µM; in the assay with SK-MEL-5 it was > 100 µM (inactive); in the assay with OVCAR-5 it was > 100 µM (inactive); with Malme-3M, > 100 µM (inactive); in the assay with NCI-H226, > 100 µM (inactive); with NCI-H23 it was > 100 µM (inactive). Also, the GI50 in the assay with MOLT-4, in the assay on OVCAR-8, in the assay on SF-539, with MCF7 and in the assay with RXF 393 was > 100 µM (inactive) each time.
Regarding `CNC(=O)N(C)COC`, the GI50 with UACC-257, in the assay on M14, in the assay with CCRF-CEM, in the assay with KM-20L2, with A549 and with HCC 2998 was > 100 µM (inactive) in each case. In addition, the GI50 in the assay with SNB-19 is > 100 µM (inactive); with HCT-15, > 100 µM; in the assay with OVCAR-5, > 100 µM (inactive); in the assay on LOX IMVI, > 100 µM (inactive); in the assay on HT-29, > 100 µM (inactive); in the assay with Malme-3M it was > 100 µM (inactive). The GI50 in the assay on NCI-H226, with MOLT-4, with OVCAR-8 and with SF-539 was > 100 µM (inactive) throughout.
Turning to `O=c1c2cccnc2oc2c(Cl)cc(-c3nnn[nH]3)cc12`, the GI50 with M14 is > 100 µM (inactive); in the assay on CCRF-CEM, > 100 µM (inactive); in the assay with A549, > 100 µM (inactive); in the assay on HCC 2998 it was > 100 µM (inactive); in the assay with SNB-19 it was > 100 µM (inactive); with HCT-15, > 100 µM. Besides, the GI50 in the assay with SK-MEL-5, in the assay on OVCAR-5, in the assay on HT-29, with Malme-3M, in the assay with NCI-H226 and in the assay with NCI-H23 was > 100 µM (inactive) throughout. Further, the GI50 in the assay on OVCAR-8, with SF-539 and with RXF 393 was > 100 µM (inactive) each time.
`CC1(C)CC[C@]2(C(=O)O)CC[C@]3(C)C(=CC[C@@H]4[C@@]5(C)CC[C@@H]6OC(C)(C)OC[C@@]6(C)[C@@H]5CC[C@]43C)[C@H]2C1`: the GI50 in the assay on UACC-257 is 13.2 µM (inactive); in the assay on M14, 15.5 µM (inactive); in the assay on CCRF-CEM, 15.4 µM (inactive); in the assay on HCC 2998, 13.2 µM (inactive); in the assay on SNB-19, 17.6 µM (inactive); in the assay on HCT-15, 2.87 µM. Also, the GI50 in the assay with OVCAR-5 is 16.8 µM (inactive); in the assay on LOX IMVI it was 4.8 µM (inactive); in the assay on HT-29 it was 4.54 µM (inactive); in the assay with Malme-3M it was 12.6 µM (inactive); in the assay on NCI-H23, 3.91 µM (inactive); in the assay on MOLT-4, 11.5 µM (inactive). Moreover, the figures for the GI50 with OVCAR-8, in the assay on SF-539 and in the assay with MCF7 were 7.64 µM (inactive), 15.1 µM (inactive) and > 10 µM (inactive), respectively.
With `CC(C)(C)OC(=O)NC(Cc1c[nH]cn1)C(=O)N1CCCC1C(N)=O` (stereo not drawn), the GI50 with UACC-257, with M14, in the assay with CCRF-CEM, in the assay with A549, in the assay on HCC 2998 and with SNB-19 was > 100 µM (inactive) in each case. The GI50 with HCT-15 was > 100 µM; with SK-MEL-5 it was > 100 µM (inactive); in the assay with OVCAR-5 it was > 100 µM (inactive); with LOX IMVI, > 100 µM (inactive); with HT-29, > 100 µM (inactive); with Malme-3M, > 100 µM (inactive). In addition, the GI50 in the assay with NCI-H226 was 33.1 µM (inactive); in the assay on NCI-H23, > 100 µM (inactive); with MOLT-4 it was > 100 µM (inactive); in the assay with OVCAR-8, > 100 µM (inactive); in the assay with SF-539 it was > 100 µM (inactive); with MCF7, > 100 µM (inactive). Besides, the GI50 with RXF 393 is 2.17 µM (inactive).
With `CO[C@H]1ON=C(c2c(C)cc(C)cc2C)[C@@H]1C1(c2ccccc2)ON=C(c2c(C)cc(C)cc2C)O1` (stereo partly drawn), the GI50 in the assay with UACC-257, in the assay with CCRF-CEM, in the assay with KM-20L2, with A549, in the assay on HCC 2998 and in the assay on SNB-19 was > 100 µM (inactive) each time. The 50% growth inhibitory concentration (GI50) in the assay on HCT-15 was > 10 µM; in the assay on OVCAR-5, > 100 µM (inactive); in the assay with LOX IMVI, > 100 µM (inactive); in the assay with Malme-3M it was > 100 µM (inactive); in the assay with NCI-H23 it was > 100 µM (inactive); in the assay on MOLT-4, 87.1 µM (inactive). In addition, the GI50 in the assay with OVCAR-8, in the assay on SF-539 and with RXF 393 was > 100 µM (inactive) each time.
As to `CC(C)CNC1=NCC(C)S1` (stereo not drawn), the GI50 in the assay on UACC-257, with M14, in the assay with CCRF-CEM, in the assay on A549, with HCC 2998 and in the assay with SNB-19 was > 100 µM (inactive) each time. In addition, the concentration for 50% growth inhibition (GI50) was > 100 µM in the assay on HCT-15; > 100 µM (inactive) in the assay on SK-MEL-5; > 100 µM (inactive) in the assay with OVCAR-5; > 100 µM (inactive) with LOX IMVI; > 100 µM (inactive) with HT-29; > 100 µM (inactive) with Malme-3M. Besides, the GI50 in the assay on NCI-H226, with NCI-H23, with MOLT-4, in the assay with SF-539, with MCF7 and with RXF 393 was > 100 µM (inactive) each time.
In the case of `Cn1c(=O)c2nc(N3CCCCC3)cnc2n(C)c1=O`, the GI50 in the assay on UACC-257, with M14, with CCRF-CEM, with KM-20L2, in the assay on A549 and in the assay with HCC 2998 was > 100 µM (inactive) in each case. In addition, the GI50 with SNB-19 was > 100 µM (inactive); with HCT-15, > 100 µM; in the assay with SK-MEL-5, > 100 µM (inactive); with OVCAR-5, > 100 µM (inactive); in the assay with HT-29, > 100 µM (inactive); in the assay with Malme-3M, > 100 µM (inactive). Further, the GI50 with NCI-H23, in the assay with MOLT-4, in the assay on OVCAR-8 and with SF-539 was > 100 µM (inactive) throughout.
In the case of `CC(=O)O[C@@H]1CN(S(=O)(=O)c2ccc(C)cc2)C[C@@H]1C1CCCCC1`, the GI50 in the assay on UACC-257 is 15.4 µM (inactive); in the assay with M14 it was 15.8 µM (inactive); in the assay with CCRF-CEM, 37.8 µM (inactive); with HCC 2998, 42.5 µM (inactive); in the assay on SNB-19 it was 54.8 µM (inactive); in the assay on HCT-15, 32.6 µM. In addition, the GI50 in the assay with SK-MEL-5 is 19.2 µM (inactive); in the assay on OVCAR-5, 26.7 µM (inactive); in the assay on LOX IMVI it was 24.6 µM (inactive); with HT-29, 22.9 µM (inactive); in the assay on NCI-H226, 16.5 µM (inactive); with NCI-H23, 38.5 µM (inactive). Further, the GI50 was 25.5 µM (inactive) with MOLT-4, 24.8 µM (inactive) in the assay on OVCAR-8, < 0.01 µM (active) in the assay with SF-539 and 19.4 µM (inactive) with MCF7.
Consider `C=CCn1c(=O)c(C(=O)Nc2nc(C34CC5CC(CC(C5)C3)C4)cs2)c(O)c2ccccc21`, for which the GI50 was 10.2 µM (inactive) in the assay on UACC-257; 37.3 µM (inactive) with CCRF-CEM; 18.2 µM (inactive) in the assay on A549; 37.5 µM (inactive) in the assay on HCC 2998; 53.6 µM (inactive) with SNB-19; 21.5 µM in the assay with HCT-15. Moreover, the GI50 is 34.4 µM (inactive) in the assay with SK-MEL-5; 91.6 µM (inactive) with OVCAR-5; 34 µM (inactive) in the assay with LOX IMVI; 19.1 µM (inactive) in the assay on HT-29; 26 µM (inactive) in the assay with Malme-3M; 50.7 µM (inactive) in the assay on NCI-H226. Also, the GI50 is 34.3 µM (inactive) in the assay with NCI-H23; 27.4 µM (inactive) in the assay on MOLT-4; 82.8 µM (inactive) with OVCAR-8; 60.8 µM (inactive) with SF-539; 50.6 µM (inactive) in the assay on MCF7; 31.6 µM (inactive) in the assay with RXF 393.
In the case of `CC(=O)NC1C(O)C(O)C(CO)OC1n1nc(SCc2ccccc2)c(=O)[nH]c1=O` (stereo not drawn), the GI50 in the assay with UACC-257, in the assay on M14, with CCRF-CEM, with A549, in the assay with HCC 2998 and in the assay with SNB-19 was > 100 µM (inactive) throughout. For the same molecule, the GI50 in the assay on HCT-15 was > 100 µM; with SK-MEL-5, > 100 µM (inactive); in the assay with OVCAR-5, > 100 µM (inactive); with LOX IMVI, > 100 µM (inactive); in the assay on HT-29, > 100 µM (inactive); in the assay with Malme-3M, > 100 µM (inactive). Moreover, the GI50 in the assay with NCI-H226, in the assay on NCI-H23, with MOLT-4, in the assay on OVCAR-8, with SF-539 and with MCF7 was > 100 µM (inactive) in each case. In addition, the GI50 with RXF 393 was > 100 µM (inactive).

For the origin of these results see ChEMBL document CHEMBL1201862, “PubChem BioAssay data set” (2004).
